Reference: patent US20210220482A1, “MITOCHONDRIAL COPPER DEPLETION REPROGRAMS THE METABOLISM OF TRIPLE NEGATIVE BREAST CANCER” (The Board of Trustees of the Leland Stanford Junior …, priority 2019, published 2021)
Read-outs that look alike come from different tables or passages of the source.

How the values were obtained:
[1] = system: MDA-MB-231 and MDA-MB-468 cells; test: Western blot of cleaved caspase 3 (apoptosis); assay type: cell-based, human; details: 24 h incubation; CDM 1 μM, ATN224 5 μM, inhibitors 1 μM
Procedure: Then cells were trypsinized, and cell lysates were prepared with RIPA buffer (Thermo, cat. no. 89900). The protein concentrations were quantified by Pierce BCA assay (Thermo Scientific, 23250). Cleaved caspase 3 antibody was purchased from Cell Signaling Technologies (Asp175, no. 9661). SOD1 antibody was from Santa Cruz Biotechnologies (sc-101523).

[2] = system: MDA-MB-231 orthotopic tumors; test: Long-term survival study; assay type: in vivo, nude mice; details: i.v. weekly, seven doses, chelator 1.35 mg kg^−1; ATN224 oral gavage 0.7 mg kg^−1 d^−1
Description: The SPN group received an i.v. injection of the same amount of SPN as in the CDN group weekly for seven doses in total. […] The treatment plan was initiated when the average tumor size reached 50 mm^3 and the endpoint of the survival study was primary tumor volume over 500 mm^3 and/or other signs identified by the veterinarian. The tumor volumes were continuously monitored over the treatment plan.

[3] = system: MDA-MB-231 and MDA-MB-468 cells; test: OCR and ECAR measurement (Seahorse); assay type: cell-based, human; details: after 1 h of incubation, both cell lines, vs nontreated control
Procedure: OCR and ECAR measurement. OCR and ECAR were measured by a Seahorse Bioscience instrument (XF96, Agilent). Briefly, on the day following MDA-MB-231 or MDA-MB-468 cell seeding, cells were incubated with CDN or control agents for 24 h (chelator concentration, 1 μM). On the day of measurement, cells were washed three times with D-PBS, changed into fresh medium without phenol red and bicarbonate (Seahorse base medium, cat. no. 103336-100) and equilibrated for 30 min in a 37° C. incubator lacking CO2. Oxygen concentration and extracellular acidification in media were measured at basal conditions and after sequential addition of oligomycin (1 μM, introduced after 28 min), FCCP (1 μM, introduced after 54 min) and rotenone/antimycin A (0.5 μM, introduced after 80 min) (n=8 per condition for OCR and ECAR for each cell line). […] Cells were then changed into Seahorse base medium and equilibrated for 30 min in a 37° C. incubator lacking CO2. Oxygen concentration and extracellular acidification in media were measured at basal conditions and after sequential addition of oligomycin (1 μM, introduced after 28 min), FCCP (1 μM, introduced after 54 min) and rotenone/antimycin A (0.5 μM, introduced after 80 min) (n=6 per condition for OCR and ECAR for each cell line).

MDA-MB-231luc cells = test: In vitro copper depletion (CCL-1 luminescence, CDM fluorescence); assay type: cell-based, human; details: CDN (CDM 1 μM) with excess EDTA, 24 h
Procedure: In vitro copper depletion: The copper level after CDN or control agent treatment was measured by CCL-1 luminescence imaging or ratiometric fluorescence microscopic imaging of fCDN. […] SPN, 50 μg ml-1) was added and incubation was continued for 24 h. […] Cells were immediately imaged by IVIS Spectrum (PerkinElmer) for 45 min. The integration images of luminescent radiance were presented. […] Images were processed as green/red ratios profiled by ImageJ and presented in pseudo-colors.

[4] = system: MDA-MB-231 and MDA-MB-468 cells; test: Cell viability with ROS scavenger MitoTEMPO; assay type: cell-based, human; details: MitoTEMPO up to 5 μM
Procedure: Cytotoxicity: For the MTS assay, TNBC and normal cells were seeded into 96-well plates 24 h before the test and cultured in a humidified atmosphere of 5% CO2 and 95% air at 37° C. Cells were then incubated with CDN or control agents with the concentrations indicated in FIG. 2 in complete medium or base medium without FBS supplement. At 24 h after incubation, cells were washed with PBS three times and changed to fresh medium. The viability of the cells after treatment was measured using the MTS assay (CellTiter 96, Promega, cat. no. G3580). The viability was presented as the percentage of control (n=3 per condition for viability). For the trypan blue exclusion test, TNBC cells were seeded into six-well plates 24 h before the test and cultured in a humidified atmosphere of 5% CO2 and 95% air at 37° C. Cells were then incubated with CDN or control agents in complete medium. […] The viability of the cells was measured with Countess II (Life Technology). […]
Cellular ATP measurement: ATP levels after CDN or control agent treatment were determined by Adenosine 5-triphosphate Bioluminescent Somatic Cell Assay Kit (Sigma-Aldrich, FLASC). […] The luminescence signals were measured by a Turner Biosystems 20/20n luminometer. The ATP concentration of each group was determined based on the ATP standard assay (n=3 per condition ATP production measurement for each cell line).

MDA-MB-231 cells = test: Cytotoxicity MTS assay, MDA-MB-231; assay type: cell-based, human; details: MDA-MB-231, 24 h, in the presence of serum, read-out: half-maximum inhibitory concentration (IC50)
Procedure: (§1) Cytotoxicity: For the MTS assay, TNBC and normal cells were seeded into 96-well plates 24 h before the test and cultured in a humidified atmosphere of 5% CO2 and 95% air at 37° C. Cells were then incubated with CDN or control agents with the concentrations indicated in FIG. 2 in complete medium or base medium without FBS supplement. At 24 h after incubation, cells were washed with PBS three times and changed to fresh medium. The viability of the cells after treatment was measured using the MTS assay (CellTiter 96, Promega, cat. no. G3580). The viability was presented as the percentage of control (n=3 per condition for viability). For the trypan blue exclusion test, TNBC cells were seeded into six-well plates 24 h before the test and cultured in a humidified atmosphere of 5% CO2 and 95% air at 37° C. Cells were then incubated with CDN or control agents in complete medium. At 24 h after incubation, cells were washed with PBS three times and collected with a scraper. The cell suspension was then mixed with 0.4% trypan blue dye (1:1; Thermo Fisher Scientific, cat. no. 15250061) and incubated for less than 3 min at room temperature. The viability of the cells was measured with Countess II (Life Technology). The viability was presented as the percentage of control (n=3 per condition for viability).

MDA-MB-468 cells = test: Cytotoxicity MTS assay, MDA-MB-468; assay type: cell-based, human; details: MDA-MB-468, 24 h, in the presence of serum
Procedure: as §1

[5] = system: MDA-MB-231luc orthotopic breast cancer; test: Copper level in tumor after treatment (CCL-1/d-luciferin imaging); assay type: in vivo, mice; details: i.v. 1.35 mg kg^−1 every 3 d, day 25, compared with the control group
Procedure: For the treatment group, mice were intravenously injected with CDN or control agents every 3 d, with five doses in total. Tumor volume was continuously monitored over the treatment plan. At day 25 after initial treatment, mice were subjected to d-luciferin bioluminescence imaging (150 mg kg^−1) and CCL-1 luminescence imaging (6 mg kg^−1).

Structure (SMILES): C[N+](C)(C)CCO.C[N+](C)(C)CCO.[SH-].[SH-].[S]=[Mo]=[S] [ATN224]
- apoptosis (cleaved caspase 3) [1]: but not with ATN224 treatment
- median survival [2]: 32 days

Structure (SMILES): Cc1cc(-c2nc(-c3ccc(OC(F)(F)F)cc3)no2)nn1Cc1ccnc(N2CCN(C3CC3)CC2)c1 [BAY 87-2243]
- apoptosis (cleaved caspase 3) [1]: barely induced apoptosis
- oxygen consumption (OCR) [3]: almost completely inhibited the oxygen consumption

Structure (SMILES): O=C(O)CN(CCN(CC(=O)O)CC(=O)O)CC(=O)O [EDTA, ethylenediaminetetraacetic acid]
- CCL-1 luminescence (labile copper) (MDA-MB-231luc cells): 78.6±11.7 % of the CDN group
- CDM fluorescence (MDA-MB-231luc cells): 123.7±4.1 % of the CDN group

Structure (SMILES): Cc1nc(-c2nc(-c3ccc(OC(F)(F)F)cc3)no2)nn1Cc1cccc(N2CCC(S(C)(=O)=O)CC2)c1 [IACS-010759]
- apoptosis (cleaved caspase 3) [1]: barely induced apoptosis
- oxygen consumption (OCR) [3]: almost completely inhibited the oxygen consumption

Structure (SMILES): CC1(C)CC(NC(=O)C[P+](c2ccccc2)(c2ccccc2)c2ccccc2)CC(C)(C)N1[O] [MitoTEMPO]
- rescue of cells from the CDN treatment effect ([4]; CDM 1 μM, 24 h): did not rescue the cells
- effect on cell viability ([4]; medium with or without FBS): will not affect the cell viability

Structure (SMILES): [SH-].[SH-].[S]=[Mo]=[S] [TM, tetrathiomolybdate]
- IC50 (MDA-MB-231 cells): > 100 µM
- IC50 (MDA-MB-468 cells): ~46.3 µM

Structure (SMILES): c1ccc(CN(Cc2ccccn2)Cc2ccccn2)nc1 [TPA, tris[(2-pyridyl)-methyl]amine]
- copper in the tumor region (CCL-1 to d-luciferin total flux ratio) [5]: successfully depleted the copper in the tumor region
- median survival [2]: 35 days
- IC50 (MDA-MB-231 cells; Homo sapiens): 9.25 ± 2.19 µM
- IC50 (MDA-MB-468 cells; Homo sapiens): 5.34 ± 1.12 µM
